Tested on: panel of cancer cell lines
Test: Cell viability (CellTiter-Glo) dose-response across cancer cell line panel;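 as to EC50: after 72 h compound incubation with CellTiter-Glo ATP readout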
Assay type: cell-based, human
Settings: for EC50: Homo sapiens
Excerpt: Next, we explored the effect of CSN5 inhibition on the viability of cancer cells. To obtain a comprehensive picture, we generated dose–response curves with a CSN5 inhibitor across more than 500 cancer cell lines in a previously described standardized setting[47] (Supplementary Data 1).
A standardized CellTiter-Glo Assay (Promega #G7570) based on the quantification of ATP was applied according to the manufacturer's protocol to measure the amount of viable cells in culture. In brief, cells were seeded into 384-well plates at optimal density for each cell line. After 4 h, compounds were added at different concentrations in growth medium and incubated for another 72 h in a humidifying chamber at 37 °C and 5% CO2. […] EC50 values were calculated from the plot of percentage of inhibition versus inhibitor concentration using the nonlinear regression analysis software Origin 7.5SR6 (OriginLab Corp.).

EC50 (SNU-449, SNU-449): 2130 nM | EC50 (SNU-475, SNU-475): 2610 nM | EC50 (SNU-685): 2090 nM | EC50 (SNU-738): 14200 nM | EC50 (SNU-761): 281 nM | EC50 (SNU-1040): 26800 nM | EC50 (SNU-1079): 661 nM | EC50 (SNU-C1, SNU-C1): 11700 nM | EC50 (SNU-C2A): 5180 nM | EC50 (SNU-C4, SNU-C4): 2280 nM | EC50 (SNU-C5): 513 nM | EC50 (SR-786, SR-786): 515 nM | EC50 (SU-DHL10, SU-DHL-10): 649 nM | EC50 (SU-DHL-4, SU-DHL-4): 703 nM | EC50 (SU-DHL-5, SU-DHL-5): 161 nM | EC50 (SU-DHL-6, SU-DHL-6): 261 nM | EC50 (SU-DHL-8, SU-DHL-8): 467 nM | EC50 (SU.86.86, SU.86.86): 27000 nM | EC50 (SUIT-2, SUIT-2): 2040 nM | EC50 (SUM44PE): 17000 nM | EC50 (SUM52PE): 4060 nM | EC50 (SUM149PT): 883 nM | EC50 (SUM185PE): 11200 nM | EC50 (SUM190PT): 2950 nM | EC50 (SUP-T1, SUP-T1): 768 nM | EC50 (SW48, SW48): 3240 nM | EC50 (SW480, SW480): 1840 nM | EC50 (SW837, SW837): > 30000 nM | EC50 (SW900, SW 900): 1450 nM | EC50 (SW982, SW982): 1380 nM | EC50 (SW1271, SW 1271): 766 nM | EC50 (SW1353, SW 1353): 1370 nM | EC50 (SW1573, SW 1573): 1070 nM | EC50 (SW1783, SW 1783): 358 nM | EC50 (SW-403, SW403): > 30000 nM | EC50 (SW-620, SW620): 2980 nM | EC50 (SYO-1): 472 nM | EC50 (Sq-1): 1270 nM | EC50 (T3M4, T3M-4): 2420 nM | EC50 (T47D, T-47D): 1030 nM | EC50 (TALL-1, TALL-1): 639 nM | EC50 (TANOUE): 248 nM | EC50 (TC-71, TC-71): 1990 nM | EC50 (TCC-PAN2): 817 nM | EC50 (TE-1, TE-1): 751 nM | EC50 (TE-6, TE-6): 1680 nM | EC50 (TE-11, TE-11): 1030 nM | EC50 (TE-14): 3660 nM | EC50 (TE-15, TE-15): 69.5 nM | EC50 (TF-1, TF-1): 2590 nM | EC50 (THP-1, THP-1): 636 nM | EC50 (TT2609-C02): 1770 nM | EC50 (TYK-nu): 155 nM | EC50 (U266B1): 485 nM | EC50 (U-87 MG): 1190 nM | EC50 (U-118-MG, U-118 MG): 1290 nM | EC50 (U-251, U-251 MG): 1610 nM | EC50 (U-937, U-937): 354 nM | EC50 (UACC-62, UACC-62): 3710 nM | EC50 (UACC-257, UACC-257): 556 nM | EC50 (UCH1, UCH-1): 415 nM | EC50 (UKE1, UKE1): 160 nM | EC50 (VM-CUB-1, VM-CUB1): 6690 nM | EC50 (VMRC-LCD): 961 nM | EC50 (VMRC-RCW): 2190 nM | EC50 (WM 266-4, WM-266-4): 1440 nM | EC50 (WM983B, WM-983B): 1390 nM | EC50 (WM-88): 20100 nM | EC50 (WM-115, WM-115): 1250 nM | EC50 (WM-1799, WM1799): 1750 nM | EC50 (WSU-WM): 814 nM | EC50 (YAPC): 569 nM
Compound: COCc1ccccc1NCc1ccc([C@H]2[C@@H](O)CCCc3cncn32)c(-c2ccccc2Cl)c1 [CSN5i-2, (5S,6S)-5-(2′-chloro-5-(((2-(methoxymethyl)phenyl)amino)methyl)-[1,1′-biphenyl]-2-yl)-6,7,8,9-tetrahydro-5H-imidazo[1,5-a]azepin-6-ol]
AMAX (Hs 294T): -53.6994 | AMAX (Hs 695T): -69.7728 | AMAX (Hs 936.T): -84.1429 | AMAX (HuG1-N): -75.3496 | AMAX (HuH-7): -82.3154 | AMAX (IGR-37): -80.2025 | AMAX (IGROV1): -66.8455 | AMAX (IPC-298): -65.2966 | AMAX (Ishikawa): -71.6276 | AMAX (JHH-4): -91.4689 | AMAX (JHOS-2): -38.1051 | AMAX (JHUEM-2): -86.9649 | AMAX (JL-1): -47.9564 | AMAX (JVM-2): -85.1393 | AMAX (KARPAS-422): -79.6206 | AMAX (KATO III): -58.0161 | AMAX (KBM-7): -95.2333 | AMAX (KE-97): -97.8925 | AMAX (KMRC-1): -54.4009 | AMAX (KP4): -68.6951 | AMAX (KP-1N): -56.9313 | AMAX (KP-3): -58.802 | AMAX (KU-19-19): -51.5044 | AMAX (KYSE-150): -49.8534 | AMAX (KYSE-180): -63.0038 | AMAX (Kasumi3): -93.6402 | AMAX (LUDLU-1): -71.9634 | AMAX (MFE-280): -66.9982 | AMAX (MG-63): -59.1323 | AMAX (MM138): -89.9344 | AMAX (MM415): -88.4479 | AMAX (MM426): -60.9162 | AMAX (MM485): -69.291 | AMAX (MM537): -73.4726 | AMAX (MM576): -52.394 | AMAX (MOLM-16): -89.6899 | AMAX (MOLT-13): -95.3007 | AMAX (MeWo): -53.7976 | AMAX (NB-1): -92.7531 | AMAX (NCI-H82): -95.3022 | AMAX (NCI-H211): -68.3447 | AMAX (NCI-H322): -37.8008 | AMAX (NCI-H441): -64.9424 | AMAX (NCI-H647): -44.0246 | AMAX (NCI-H650): -44.5856 | AMAX (NCI-H810): -67.8352 | AMAX (NCI-H841): -78.3347 | AMAX (NCI-H1155): -84.5649 | AMAX (NCI-H1299): -58.5091 | AMAX (NCI-H1339): -66.5268 | AMAX (NCI-H1373): -65.8548 | AMAX (NCI-H1568): -93.8026 | AMAX (NCI-H2087): -59.3219 | AMAX (NCI-H2122): -79.8003 | AMAX (NCI-H2126): -18.8926 | AMAX (NCI-H2172): -75.6398 | AMAX (NCI-H2452): -33.7782 | AMAX (NCI-N87): -47.3502 | AMAX (ONCO-DG-1): -61.2577 | AMAX (OUMS-23): -82.8646 | AMAX (OV56): -76.0147 | AMAX (P3HR-1): -76.4402 | AMAX (P12-ICHIKAWA): -95.4636 | AMAX (PC-3): -57.0972 | AMAX (Panc 03.27): -70.0008 | AMAX (Panc 10.05): -84.7778 | AMAX (RT-112): -42.1113 | AMAX (SEM): -97.9816 | AMAX (SK-ES-1): -89.0847 | AMAX (WM-88): -55.011 | maximal loss of viability (other, less sensitive cell lines of the panel): 40–60% | Amax (high-concentration effect level) (some cell lines of the panel (cytotoxic)): ≤ −80%
